27 compounds from patent US11661426B2, “Imidazole-containing inhibitors of ALK2 kinase” (BioCryst Pharmaceuticals, Inc., priority 2017, dated 2023) can be followed below.

Where only a bound is given, the exact number is not on record here.

One may read the IC50 as the point on the concentration scale where inhibition reaches its midpoint.

Sequence of ALK2 (Q04771 21-509): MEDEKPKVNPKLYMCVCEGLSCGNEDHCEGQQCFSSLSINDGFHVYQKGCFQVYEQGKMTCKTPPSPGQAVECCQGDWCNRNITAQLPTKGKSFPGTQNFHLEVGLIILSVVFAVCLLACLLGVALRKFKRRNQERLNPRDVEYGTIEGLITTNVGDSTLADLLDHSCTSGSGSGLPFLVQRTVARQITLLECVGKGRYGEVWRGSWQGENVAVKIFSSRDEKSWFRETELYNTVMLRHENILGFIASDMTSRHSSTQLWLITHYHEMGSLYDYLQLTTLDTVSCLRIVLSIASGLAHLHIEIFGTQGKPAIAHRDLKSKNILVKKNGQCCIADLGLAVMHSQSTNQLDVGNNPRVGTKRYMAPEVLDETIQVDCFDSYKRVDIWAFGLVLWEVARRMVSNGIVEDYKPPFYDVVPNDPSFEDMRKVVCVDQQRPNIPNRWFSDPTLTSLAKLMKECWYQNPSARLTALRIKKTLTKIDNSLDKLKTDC

The target of this assay is ALK2 (Homo sapiens (Human), UniProt Q04771). Put plainly: ALK2 inhibition, LanthaScreen Eu Kinase Binding Assay (ThermoFisher Scientific / Life Technologies). The conditions noted are these: read-out: Measured Ki (IC50) Value for Compounds: IC50. How it is done:
Biochemical assays to measure the inhibitory effects of the compounds were performed by ThermoFisher Scientific (Life Technologies). ALK2 inhibition was tested using LanthaScreen™ Eu Kinase Binding Assay screening protocol.
In general terms: TR-FRET usually uses a lanthanide donor and a delayed reading to cut background.
Regarding `OC[C@@H]1CCCN1c1nc(Nc2cn(-c3cn(C4CCCC4)cn3)cn2)c2cccn2n1` [Compound 451d, (S)-(1-(4-((1′-cyclopentyl-1′H-[1,4′-biimidazol]-4-yl)amino)pyrrolo[2,1-f][1,2,4]triazin-2-yl)pyrrolidin-2-yl)methanol], the IC50 was in the range of 100 to 1000 nM. Next, `OC[C@@H]1CCCN1c1nc(Nc2cn(-c3cn(C4CCCCC4)cn3)cn2)c2cccn2n1` [Compound 452d, (S)-(1-(4-((1′-cyclohexyl-1′H-[1,4′-biimidazol]-4-yl)amino)pyrrolo[2,1-f][1,2,4]triazin-2-yl)pyrrolidin-2-yl)methanol]: 100 to 1000 nM; `COc1cc(-n2cnc(Nc3nc(N4CCC[C@H]4CO)nc4c3cnn4CC3CCCCC3)c2)cc(OC)c1OC` [Compound 453d, (S)-(1-(1-(cyclohexylmethyl)-4-((1-(3,4,5-trimethoxyphenyl)-1H-imidazol-4-yl)amino)-1H-pyrazolo[3,4-d]pyrimidin-6-yl)pyrrolidin-2-yl)methanol]: less than 100 nM. Next, `COc1cc(-n2cnc(Nc3nc(N4CCC[C@H]4CO)c4c(C)nn(C5CCOCC5)c4n3)c2)cc(OC)c1OC` [Compound 454c, (S)-(1-(3-methyl-1-(tetrahydro-2H-pyran-4-yl)-6-((1-(3,4,5-trimethoxyphenyl)-1H-imidazol-4-yl)amino)-1H-pyrazolo[3,4-d]pyrimidin-4-yl)pyrrolidin-2-yl)methanol]: less than 100 nM. For `OC[C@@H]1CCCN1c1nc(Nc2nccs2)c2cccn2n1` [Compound 455c, (S)-(1-(4-(thiazol-2-ylamino)pyrrolo[2,1-f][1,2,4]triazin-2-yl)pyrrolidin-2-yl)methanol], the concentration for half-maximal inhibition (IC50) fell in the range of 100 to 1000 nM.

As for `COC(=O)c1cnc(Nc2nc(N3CCC[C@H]3CO)nn3cccc23)s1` [Compound 455d, (S)-methyl 2-((2-(2-(hydroxymethyl)pyrrolidin-1-yl)pyrrolo[2,1-f][1,2,4]triazin-4-yl)amino)thiazole-5-carboxylate], the 50% inhibitory concentration (IC50) was greater than 1000 nM. Take `COc1cc(-n2cnc(Nc3nc(N4CCC[C@H]4CO)c4c(C)nn(C(C)C)c4n3)c2)cc(OC)c1OC` [Compound 456c, (S)-(1-(1-isopropyl-3-methyl-6-((1-(3,4,5-trimethoxyphenyl)-1H-imidazol-4-yl)amino)-1H-pyrazolo[3,4-d]pyrimidin-4-yl)pyrrolidin-2-yl)methanol]: the IC50 is less than 100 nM.

As to `COc1cc(-n2cnc(Nc3nc(N4CCC[C@H]4CO)nc4c3cnn4[C@H]3CC[C@@H](O)CC3)c2)cc(OC)c1OC` [Compound 457c, (cis)-4-(6-((S)-2-(hydroxymethyl)pyrrolidin-1-yl)-4-((1-(3,4,5-trimethoxyphenyl)-1H-imidazol-4-yl)amino)-1H-pyrazolo[3,4-d]pyrimidin-1-yl)cyclohexanol], the concentration for half-maximal inhibition (IC50) was less than 100 nM. Next, `CCn1nc(C)c2c(N3CCC[C@H]3CO)nc(Nc3cn(-c4cc(OC)c(OC)c(OC)c4)cn3)nc21` [Compound 458c, (S)-(1-(1-ethyl-3-methyl-6-((1-(3,4,5-trimethoxyphenyl)-1H-imidazol-4-yl)amino)-1H-pyrazolo[3,4-d]pyrimidin-4-yl)pyrrolidin-2-yl)methanol]: less than 100 nM; `COc1cc(-n2cnc(Nc3nc(N4CCC[C@H]4CO)c4c(C)nn(C5CC(F)(F)C5)c4n3)c2)cc(OC)c1OC` [Compound 459c, (S)-(1-(1-(3,3-difluorocyclobutyl)-3-methyl-6-((1-(3,4,5-trimethoxyphenyl)-1H-imidazol-4-yl)amino)-1H-pyrazolo[3,4-d]pyrimidin-4-yl)pyrrolidin-2-yl)methanol]: less than 100 nM; `COc1cc(-n2cnc(Nc3nc(N4CCC[C@@H]4CO)c4c(C)nn(C5CCC5)c4n3)c2)cc(OC)c1OC` [Compound 460d, (R)-(1-(1-cyclobutyl-3-methyl-6-((1-(3,4,5-trimethoxyphenyl)-1H-imidazol-4-yl)amino)-1H-pyrazolo[3,4-d]pyrimidin-4-yl)pyrrolidin-2-yl)methanol]: less than 100 nM. For `COc1cc(-c2cnc(Nc3nc(N4CCC[C@H]4CO)nn4cccc34)s2)cc(OC)c1OC` [Compound 461c, (S)-(1-(4-((5-(3,4,5-trimethoxyphenyl)thiazol-2-yl)amino)pyrrolo[2,1-f][1,2,4]triazin-2-yl)pyrrolidin-2-yl)methanol], the IC50 was less than 100 nM. `COc1cc(-n2cnc(Nc3nc(N4CCC[C@H]4CO)nc4c3ccn4CC3CCCCC3)c2)cc(OC)c1OC` [Compound 462c, (S)-(1-(7-(cyclohexylmethyl)-4-((1-(3,4,5-trimethoxyphenyl)-1H-imidazol-4-yl)amino)-7H-pyrrolo[2,3-d]pyrimidin-2-yl)pyrrolidin-2-yl)methanol]: the IC50 was less than 100 nM. To `COc1cc(-n2cnc(Nc3nc(N4CCC[C@H]4CO)c4c(C)nn(CC5CC5)c4n3)c2)cc(OC)c1OC` [Compound 463c, (S)-(1-(1-(cyclopropylmethyl)-3-methyl-6-((1-(3,4,5-trimethoxyphenyl)-1H-imidazol-4-yl)amino)-1H-pyrazolo[3,4-d]pyrimidin-4-yl)pyrrolidin-2-yl)methanol] belongs less than 100 nM; to `COc1cc(-n2cnc(Nc3nc(N4CCC[C@H]4CO)c4cnn(C5CCC5)c4n3)c2)cc(OC)c1OC` [Compound 464d, (S)-(1-(1-cyclobutyl-6-((1-(3,4,5-trimethoxyphenyl)-1H-imidazol-4-yl)amino)-1H-pyrazolo[3,4-d]pyrimidin-4-yl)pyrrolidin-2-yl)methanol], less than 100 nM; to `COc1cc(-n2cnc(Nc3nc(N4CCC[C@H]4CO)c4c(C)nn([C@H]5C[C@H](O)C5)c4n3)c2)cc(OC)c1OC` [Compound 465c, (trans)-3-(4-((S)-2-(hydroxymethyl)pyrrolidin-1-yl)-3-methyl-6-((1-(3,4,5-trimethoxyphenyl)-1H-imidazol-4-yl)amino)-1H-pyrazolo[3,4-d]pyrimidin-1-yl)cyclobutanol], less than 100 nM.

For the compound `COc1cc(-n2cnc(Nc3nc(N4CCC[C@H]4CO)c4c(C)nn([C@H]5C[C@@H](O)C5)c4n3)c2)cc(OC)c1OC` [Compound 466c, (cis)-3-(4-((S)-2-(hydroxymethyl)pyrrolidin-1-yl)-3-methyl-6-((1-(3,4,5-trimethoxyphenyl)-1H-imidazol-4-yl)amino)-1H-pyrazolo[3,4-d]pyrimidin-1-yl)cyclobutanol], the IC50 is less than 100 nM. On to `O=C(c1cnc(Nc2nc(N3CCC[C@H]3CO)nn3cccc23)s1)N1CCC[C@H]1CO` [Compound 467c, ((S)-2-(hydroxymethyl)pyrrolidin-1-yl)(2-((2-((S)-2-(hydroxymethyl)pyrrolidin-1-yl)pyrrolo[2,1-f][1,2,4]triazin-4-yl)amino)thiazol-5-yl)methanone], for which the IC50 is greater than 1000 nM. For the compound `CNC(=O)c1cc(C2CC2)cc(-n2cnc(Nc3nc(N4CCC[C@H]4CO)nn4cccc34)c2)c1` [Compound 468g, (S)-3-cyclopropyl-5-(4-((2-(2-(hydroxymethyl)pyrrolidin-1-yl)pyrrolo[2,1-f][1,2,4]triazin-4-yl)amino)-1H-imidazol-1-yl)-N-methylbenzamide], the IC50 was greater than 1000 nM. For `O=C1OCc2ccc(-n3cnc(Nc4nc(N5CCC[C@H]5CO)nn5cccc45)c3)cc21` [Compound 469g, (S)-6-(4-((2-(2-(hydroxymethyl)pyrrolidin-1-yl)pyrrolo[2,1-f][1,2,4]triazin-4-yl)amino)-1H-imidazol-1-yl)isobenzofuran-1(3H)-one], the half-maximal inhibitory concentration (IC50) is 100 to 1000 nM. For `OC[C@@H]1CCCN1c1nc(Nc2cn([C@H]3CC[C@H](O)CC3)cn2)c2cccn2n1` [Compound 470e, (trans)-4-(4-((2-((S)-2-(hydroxymethyl)pyrrolidin-1-yl)pyrrolo[2,1-f][1,2,4]triazin-4-yl)amino)-1H-imidazol-1-yl)cyclohexanol], the IC50 lay in the range of 100 to 1000 nM. Take `OC[C@@H]1CCCN1c1nc(Nc2cn([C@H]3C[C@H](O)C3)cn2)c2cccn2n1` [Compound 471e, (trans)-3-(4-((2-((S)-2-(hydroxymethyl)pyrrolidin-1-yl)pyrrolo[2,1-f][1,2,4]triazin-4-yl)amino)-1H-imidazol-1-yl)cyclobutanol]: the half-maximal inhibitory concentration (IC50) was less than 100 nM. Next, `COc1cc(-n2cnc(Nc3nc(N4CCC[C@H]4CO)c4ccn(C(C)C)c4n3)c2)cc(OC)c1OC` [Compound 472c, (S)-(1-(7-isopropyl-2-((1-(3,4,5-trimethoxyphenyl)-1H-imidazol-4-yl)amino)-7H-pyrrolo[2,3-d]pyrimidin-4-yl)pyrrolidin-2-yl)methanol]: less than 100 nM; `OC[C@@H]1CCCN1c1nc(Nc2cn([C@H]3CC[C@H](CO)CC3)cn2)c2cccn2n1` [Compound 474e, ((S)-1-(4-((1-((trans)-4-(hydroxymethyl)cyclohexyl)-1H-imidazol-4-yl)amino)pyrrolo[2,1-f][1,2,4]triazin-2-yl)pyrrolidin-2-yl)methanol]: less than 100 nM. In the case of `Cc1cc(Cl)cc(-c2cnc(Nc3nc(N4CCC[C@H]4CO)nn4cccc34)s2)c1` [Compound 475c, (S)-(1-(4-((5-(3-chloro-5-methylphenyl)thiazol-2-yl)amino)pyrrolo[2,1-f][1,2,4]triazin-2-yl)pyrrolidin-2-yl)methanol], the IC50 is greater than 1000 nM. Take `COc1cc(-c2cnc(Nc3nc(N4CCC[C@H]4CO)c4cccn4n3)s2)cc(OC)c1OC` [Compound 476a, (S)-(1-(2-((5-(3,4,5-trimethoxyphenyl)thiazol-2-yl)amino)pyrrolo[2,1-f][1,2,4]triazin-4-yl)pyrrolidin-2-yl)methanol]: the IC50 was less than 100 nM.

Regarding “(R)-(1-(5-((1-(3,4,5-trimethoxyphenyl)-1H-imidazol-4-yl)amino)thiazolo[5,4-d]pyrimidin-7-yl)pyrrolidin-2-yl)methanol [Compound 323b]”, the IC50 is less than 100 nM.
